Experimental data: patent publication US7265130B2, “NPY Y5 antagonist” (Shionogi & Co., Ltd., priority 1999, dated 2007)

Assays:
human NPY Y5 receptor [1] = target: T1, human NPY Y5 receptor (Homo sapiens, UniProt Q15761); assay: cAMP production inhibitory activity in CHO cells; format: cell-based; conditions: against 50 nM NPY inhibition of forskolin stimulated cAMP, CHO cells expressing human NPY Y5 receptor
T1 construct: expressed in transfected cells
T1 sequence (Q15761 1-445): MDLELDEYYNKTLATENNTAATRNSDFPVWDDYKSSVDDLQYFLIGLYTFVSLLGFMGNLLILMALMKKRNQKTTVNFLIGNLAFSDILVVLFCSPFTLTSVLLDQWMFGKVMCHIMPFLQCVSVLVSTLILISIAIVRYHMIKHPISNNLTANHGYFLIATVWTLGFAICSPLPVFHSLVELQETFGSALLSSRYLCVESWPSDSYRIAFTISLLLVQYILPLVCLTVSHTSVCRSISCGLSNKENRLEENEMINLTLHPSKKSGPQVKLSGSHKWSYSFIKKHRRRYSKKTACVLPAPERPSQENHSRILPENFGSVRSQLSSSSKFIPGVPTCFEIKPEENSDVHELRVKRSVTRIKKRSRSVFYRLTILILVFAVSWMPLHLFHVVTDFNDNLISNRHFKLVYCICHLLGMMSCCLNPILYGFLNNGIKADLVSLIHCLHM
Protocol: Experiment 2 cAMP production inhibitory activity in CHO cells
After CHO cells expressing human NPY Y5 receptor were incubated in the presence of 2.5 mM isobutylmethylxanthine (SIGMA) at 37° C. for 20 min., the compound of the present invention was added and incubated for 5 min. Then, 50 nM NPY and 10 μM forskolin (SIGMA) were added to the cells and incubated for 30 min. After the reaction was terminated by adding 1N HCl, the amount of cAMP in the supernatant was measured with EIA kit (Amersham LIFE SCIENCE).

human NPY Y5 receptor [2] = target: T1, human NPY Y5 receptor; assay: Affinity for NPY Y5 receptor ([125I] peptide YY binding, CHO cell membranes); conditions: inhibition of specific [125I] peptide YY binding, membranes of CHO cells expressing NPY Y5 receptor
Excerpt: Experiment 1 Affinity for NPY Y5 Receptor
cDNA sequence encoding a human NPY Y5 receptor (WO096/16542) was cloned in the expression vector pME18S (Takebe et al. Mol. Cell. Biol. 8, 8957). The obtained expression vector was transfected into a host CHO cells by using a Lipofect AMINE reagent (Trademark, Gibco BRL Co., Ltd.) according to an instruction protocol to obtain the cells that stably express NPY Y5 receptor.
The membranes prepared from the above CHO cells expressing NPY Y5 receptor, the compound of the present invention and 30,000 cpm [^125I] peptide YY (60 pM of final concentration: Amersham) were incubated in the assay buffer (20 mM HEPES-Hanks buffer containing 0.1% bovine serum albumin, pH 7.4) at 25° C. for 2 hours, and then the mixture was filtered with a glassfilter GF/C treated with polyethyleneimine. After the glassfilter was washed with 50 mM Tris-HCl buffer (pH 7.4), the radioactivity on the filter was measured with a gamma counter. The non-specific binding was detected in the presence of 200 nM of peptide YY. The 50% inhibitory concentration of the test compound against the specific peptide YY binding (IC50 value) was calculated (Inui, A. et al. Endocrinology 131, 2090-2096 (1992)).

Compound	IC50 (human NPY Y5 receptor [1]) [nM]	IC50 (human NPY Y5 receptor [2]) [nM]
CCCc1ccc(NC(=O)C2CCC(NS(=O)(=O)C(C)(C)C)CC2)cc1 (centres unmarked) [Ia-10]	2.7	0.47
CC(C)c1ccc(NC(=O)C2CCC(NS(=O)(=O)C(C)(C)C)CC2)cc1 (centres unmarked) [Ia-11]	7.2	0.64
CC(C)(C)c1ccc(NC(=O)C2CCC(NS(=O)(=O)C(C)(C)C)CC2)cc1 (centres unmarked) [Ia-13]	3.3	1.5
CC(C)(C)S(=O)(=O)NC1CCC(C(=O)Nc2ccc(Cl)cc2)CC1 (centres unmarked) [Ia-14]	28	4.8
CC(C)(C)S(=O)(=O)NC1CCC(C(=O)Nc2ccc(F)c(F)c2F)CC1 (centres unmarked) [Ia-24]	74	5.2
C[C@@H]1CN(c2ccc(NC(=O)C3CCC(NS(=O)(=O)C(C)(C)C)CC3)cc2Cl)C[C@H](C)O1 (some centres unmarked) [Ia-25]	18	1.1
COc1ccc(NC(=O)C2CCC(NS(=O)(=O)C(C)(C)C)CC2)cc1F (centres unmarked) [Ia-36]	86	1.6
C[C@@H]1C[C@@H](C)CN(c2ccc(NC(=O)C3CCC(NS(=O)(=O)C(C)(C)C)CC3)cc2)C1 (some centres unmarked) [Ia-38]	2.2	1
CC(C)(C)S(=O)(=O)NC1CCC(C(=O)Nc2cccc(Cl)c2)CC1 (centres unmarked) [Ia-41]	9	2.5
C[C@@H]1CN(c2ccc(NC(=O)C3CCC(NS(=O)(=O)C(C)(C)C)CC3)cc2)C[C@@H](C)O1 (some centres unmarked) [Ia-42]	20	3.6
C[C@@H]1CN(S(=O)(=O)c2ccc(NC(=O)C3CCC(NS(=O)(=O)C(C)(C)C)CC3)cc2)C[C@H](C)O1 (some centres unmarked) [Ia-44]	27	4.8
CCOCCN(CCOCC)c1ccc(NC(=O)C2CCC(NS(=O)(=O)C(C)(C)C)CC2)cc1 (centres unmarked) [Ia-45]	42	4.8
Cc1ccc2nc(-c3ccc(NC(=O)C4CCC(NS(=O)(=O)C(C)(C)C)CC4)cc3)sc2c1 (centres unmarked) [Ia-46]	8.3	0.87
CC(C)[C@@H]1CN(c2ccc(NC(=O)C3CCC(NS(=O)(=O)C(C)(C)C)CC3)cc2)CCO1 (some centres unmarked) [Ia-47]	3.8	0.82
CCC1(CC)CN(c2ccc(NC(=O)C3CCC(NS(=O)(=O)C(C)(C)C)CC3)cc2)CCO1 (centres unmarked) [Ia-48]	6.1	1.2
CC(C)S(=O)(=O)NC1CCC(C(=O)Nc2ccc(N3C[C@@H](C)O[C@@H](C)C3)c(F)c2)CC1 (some centres unmarked) [Ia-49]	83	2.6
CC(C)(C)S(=O)(=O)NC1CCC(C(=O)Nc2ccc(N3CCC(=O)CC3)cc2)CC1 (centres unmarked) [Ia-52]	22	1.9
CC(C)(C)S(=O)(=O)NC1CCC(C(=O)Nc2ccc(C(=O)c3ccccc3)cc2)CC1 (centres unmarked) [Ia-53]	8.1	0.22
C[C@@H]1CN(S(=O)(=O)c2cccc(NC(=O)C3CCC(NS(=O)(=O)C(C)(C)C)CC3)c2)C[C@H](C)O1 (some centres unmarked) [Ia-55]	27	1.1
CC(C)(O)c1ccc(NC(=O)C2CCC(NS(=O)(=O)C(C)(C)C)CC2)cc1 (centres unmarked) [Ia-56]	96	2.3
CC(O)(c1ccccc1)c1ccc(NC(=O)C2CCC(NS(=O)(=O)C(C)(C)C)CC2)cc1 (centres unmarked) [Ia-57]	31	0.93
CC(C)(C)S(=O)(=O)Nc1ccc(NC(=O)C2CCC(NS(=O)(=O)C(C)(C)C)CC2)cc1 (centres unmarked) [Ia-58]	110	2.5
CC(C)(C)S(=O)(=O)NC1CCC(C(=O)Nc2cnc(-c3ccccc3)cn2)CC1 (centres unmarked) [Ia-59]	16	0.71
CC(=O)c1cc2cc(NC(=O)C3CCC(NS(=O)(=O)C(C)(C)C)CC3)ccc2oc1=O (centres unmarked) [Ia-60]	10	0.95
CN1C(=O)c2ccc(NC(=O)C3CCC(NS(=O)(=O)C(C)(C)C)CC3)cc2C1=O (centres unmarked) [Ia-61]	19	0.68
CC(C)(C)S(=O)(=O)NC1CCC(C(=O)Nc2ccc(NS(C)(=O)=O)cc2)CC1 (centres unmarked) [Ia-63]	370	3.9
CC(C)(C)S(=O)(=O)NC1CCC(C(=O)Nc2ccc(NS(=O)(=O)c3ccccc3)cc2)CC1 (centres unmarked) [Ia-64]	96	7.1
CC(C)(C)S(=O)(=O)NC1CCC(C(=O)Nc2ccc(N3CCC(O)(c4ccc(Cl)cc4)CC3)cc2)CC1 (centres unmarked) [Ia-65]	11	1.1

Compound	IC50 (human NPY Y5 receptor [1]) [nM]	IC50 (human NPY Y5 receptor [2]) [nM]
CC(C)(C)S(=O)(=O)NC1CCC(C(=O)Nc2nnc(-c3ccccc3)s2)CC1 (centres unmarked) [Ia-66]	3.2	0.59
CC(C)(C)S(=O)(=O)NC1CCN(C(=O)Nc2ccc3oc(=O)ccc3c2)CC1 [Ia-68]	180	9.5
Cn1nnnc1-c1ccc(NC(=O)[C@H]2CC[C@H](NS(=O)(=O)C(C)(C)C)CC2)cc1 [Ia-69]	33	2.7
CC(C)(C)S(=O)(=O)NC1CCN(C(=O)Nc2cnc(-c3ccccc3)cn2)CC1 [Ia-70]	31	1.5
CC(C)(C)S(=O)(=O)N[C@H]1CC[C@H](C(=O)Nc2ccc(-c3nnnn3-c3ccccc3)cc2)CC1 [Ia-71]	12	1.3
CC(C)(C)S(=O)(=O)NCCCCC(=O)Nc1ccc2oc(=O)ccc2c1 [Ia-78]	150	2
CC(C)S(=O)(=O)N[C@H]1CC[C@H](C(=O)Nc2ccc3c(c2)C(=O)N(c2ccccc2)C3=O)CC1 [Ia-80]	3	0.44
CC(C)(C)S(=O)(=O)NCCCCC(=O)Nc1ccc2c(c1)C(=O)N(c1ccccc1)C2=O [Ia-81]	4.5	2.7
C[C@@H]1CN(c2ccc(NC(=O)CCCCNS(=O)(=O)C(C)(C)C)c(F)c2)C[C@H](C)O1 [Ia-83]	53	1.2
CC(C)S(=O)(=O)NC1CCC(C(=O)Nc2ccc(N3CCC(O)(c4ccc(Cl)cc4)CC3)cc2)CC1 (centres unmarked) [Ia-84]	13	0.25
CC(C)(C)S(=O)(=O)NCCCCC(=O)Nc1ccc(N2CCC(O)(c3ccc(Cl)cc3)CC2)cc1 [Ia-85]	14	0.22
CC(C)S(=O)(=O)NCCCCC(=O)Nc1ccc(N2CCC(O)(c3ccc(Cl)cc3)CC2)cc1 [Ia-86]	11	0.73
CC(C)S(=O)(=O)NC1CCC(C(=O)Nc2ccc3c(c2)C(=O)N(C)C3=O)CC1 (centres unmarked) [Ia-87]	61	0.49
CC(C)S(=O)(=O)NC1CCC(C(=O)Nc2ccc3c(c2)OCO3)CC1 (centres unmarked) [Ia-88]	48	0.62
CN1C(=O)c2ccc(NC(=O)CCCCNS(=O)(=O)C(C)(C)C)cc2C1=O [Ia-91]	150	4
CC(C)(C)S(=O)(=O)NC1CCC(C(=O)Nc2ccc3scnc3c2)CC1 (centres unmarked) [Ia-106]	24	1.9
CC(C)(C)S(=O)(=O)NC1CCC(C(=O)Nc2ccc(-c3ccccc3)cc2)CC1 (centres unmarked) [Ia-107]	1.3	0.14
CC(C)(C)S(=O)(=O)NC1CCC(C(=O)Nc2cccc3c2Cc2ccccc2-3)CC1 (centres unmarked) [Ia-109]	3.9	0.6
CC(C)(C)S(=O)(=O)NC1CCC(C(=O)Nc2ccc(N3CC=CC3)cc2)CC1 (centres unmarked) [Ia-110]	1.1	0.3
CC(C)(C)S(=O)(=O)NC1CCC(C(=O)Nc2cccc3c2CCCC3)CC1 (centres unmarked) [Ia-111]	28	5.1
CC(C)(C)S(=O)(=O)Nc1ccc(C(=O)Nc2ccc3c(c2)CCC3)cc1 [Ia-125]	46	4.1
CC(C)(C)S(=O)(=O)Nc1ccc(C(=O)Nc2ccc3c(c2)OCCO3)cc1 [Ia-127]	160	6.1
CC(C)(C)S(=O)(=O)NC1CCC(C(=O)Nc2cccc(C(F)(F)F)c2)CC1 (centres unmarked) [Ia-129]	26	1.3
CC(C)(C)S(=O)(=O)NC1CCC(C(=O)Nc2ccc3ccsc3c2)CC1 (centres unmarked) [Ia-130]	3	0.21
CC(C)(C)S(=O)(=O)Nc1ccc(C(=O)Nc2ccc3ccsc3c2)cc1 [Ia-131]	17	1.3
CC(C)NC(=O)c1cccc(NC(=O)c2ccc(NS(=O)(=O)C(C)(C)C)cc2)c1 [Ia-132]	76	2.8
CC(C)(C)S(=O)(=O)Nc1ccc(C(=O)Nc2ccc3sccc3c2)cc1 [Ia-133]	8.8	1.7
